Laboratory results taken from the supplement of paper PMC10307832.

Experiments:
Test in all cases: relative viability (nuclei count vs DMSO), 5 days (fraction); higher = more cells survive
NCI-H2170 = system: NCI-H2170
In short: (§1)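 Lung cancer cell lines, seeded in 1536-well plates, were treated the following day by pin tool with a single drug or with five library-drug doses (not always all listed) in √10 steps on top of a fixed anchor-drug dose. Cells were fixed and nuclei stained in one step after 5 days, and nuclei were counted. Relative viability is the nuclei count for treated wells divided by that for vehicle wells, reported as medians of duplicate plates.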

NCI-H1793 = system: NCI-H1793
In short: as §1

NCI-H522 = system: NCI-H522
In short: as §1

HARA = system: HARA
In short: as §1

CAL-12T = system: CAL-12T
In short: as §1

NCI-H1915 = system: NCI-H1915
In short: as §1

H3255 = system: H3255
In short: as §1

NCI-H647 = system: NCI-H647
In short: as §1

NCI-H441 = system: NCI-H441
In short: as §1

BEN = system: BEN
In short: as §1

NCI-H650 = system: NCI-H650
In short: as §1

NCI-H322M = system: NCI-H322M
In short: as §1

LOU-NH91 = system: LOU-NH91
In short: as §1

HCC-15 = system: HCC-15
In short: as §1

LXF-289 = system: LXF-289
In short: as §1

HCC-366 = system: HCC-366
In short: as §1

LC-2-ad = system: LC-2-ad
In short: as §1

NCI-H2347 = system: NCI-H2347
In short: as §1

NCI-H838 = system: NCI-H838
In short: as §1

NCI-H2085 = system: NCI-H2085
In short: as §1

NCI-H1651 = system: NCI-H1651
In short: as §1

NCI-H1395 = system: NCI-H1395
In short: as §1

Question: Which relative viability (NCI-H2170; first compound 0.253 µM) does the source give for `Nc1cccc2c1CN(C1CCC(=O)NC1=O)C2=O` (stereo not given) [Lenalidomide] + NC(=O)Nc1cc(-c2cccc(F)c2)sc1C(=O)N[C@H]1CCCNC1 [AZD7762] (partner 0.2 µM) here?
Answer: The relative viability was 0.861.

Question: What about the relative viability (NCI-H2170; first compound 0.8 µM) of the same compound?
Answer: The relative viability was 0.703.

Question: And the relative viability (NCI-H2170; first compound 2.53 µM)?
Answer: Its relative viability is 0.976.

Question: What about the relative viability (NCI-H2170; first compound 8 µM) of the same compound?
Answer: The relative viability was 0.739.

Question: What about the relative viability (NCI-H1793; first compound 0.253 µM) of the same compound?
Answer: Its relative viability is 0.476.

Question: And the relative viability (NCI-H1793; first compound 2.53 µM)?
Answer: The relative viability was 0.821.

Question: And the relative viability (NCI-H1793; first compound 8 µM)?
Answer: The relative viability was 0.389.

Question: What about the relative viability (NCI-H522; first compound 0.253 µM) of the same compound?
Answer: The relative viability was 0.858.

Question: And the relative viability (NCI-H522; first compound 0.8 µM)?
Answer: Its relative viability is 0.882.

Question: What about the relative viability (NCI-H522; first compound 2.53 µM) of the same compound?
Answer: Its relative viability is 0.758.

Question: And the relative viability (NCI-H522; first compound 8 µM)?
Answer: The relative viability was 0.758.

Question: What about the relative viability (HARA; first compound 0.253 µM) of the same compound?
Answer: Its relative viability is 0.173.

Question: And the relative viability (HARA; first compound 2.53 µM)?
Answer: Its relative viability is 0.296.

Question: What about the relative viability (HARA; first compound 8 µM) of the same compound?
Answer: The relative viability was 0.434.

Question: What about the relative viability (CAL-12T; first compound 0.253 µM) of the same compound?
Answer: Its relative viability is 0.668.

Question: And the relative viability (CAL-12T; first compound 0.8 µM)?
Answer: The relative viability was 0.564.

Question: What about the relative viability (CAL-12T; first compound 2.53 µM) of the same compound?
Answer: The relative viability was 0.737.

Question: And the relative viability (CAL-12T; first compound 8 µM)?
Answer: Its relative viability is 0.666.

Question: And the relative viability (NCI-H1915; first compound 0.253 µM)?
Answer: Its relative viability is 0.678.

Question: And the relative viability (NCI-H1915; first compound 0.8 µM)?
Answer: The relative viability was 0.699.

Question: What about the relative viability (NCI-H1915; first compound 2.53 µM) of the same compound?
Answer: The relative viability was 0.739.

Question: And the relative viability (NCI-H1915; first compound 8 µM)?
Answer: Its relative viability is 0.682.

Question: And the relative viability (H3255; first compound 0.253 µM)?
Answer: Its relative viability is 0.936.

Question: What about the relative viability (H3255; first compound 0.8 µM) of the same compound?
Answer: The relative viability was 0.747.

Question: What about the relative viability (H3255; first compound 2.53 µM) of the same compound?
Answer: Its relative viability is 0.93.

Question: And the relative viability (H3255; first compound 8 µM)?
Answer: Its relative viability is 0.823.

Question: What about the relative viability (NCI-H647; first compound 0.253 µM) of the same compound?
Answer: Its relative viability is 0.485.

Question: And the relative viability (NCI-H647; first compound 0.8 µM)?
Answer: The relative viability was 0.401.

Question: What about the relative viability (NCI-H647; first compound 2.53 µM) of the same compound?
Answer: The relative viability was 0.499.

Question: And the relative viability (NCI-H647; first compound 8 µM)?
Answer: Its relative viability is 0.498.

Question: What about the relative viability (NCI-H441; first compound 0.253 µM) of the same compound?
Answer: Its relative viability is 1.3.

Question: What about the relative viability (NCI-H441; first compound 0.8 µM) of the same compound?
Answer: Its relative viability is 1.15.

Question: What about the relative viability (NCI-H441; first compound 2.53 µM) of the same compound?
Answer: Its relative viability is 1.17.

Question: What about the relative viability (NCI-H441; first compound 8 µM) of the same compound?
Answer: The relative viability was 1.26.

Question: And the relative viability (BEN; first compound 0.253 µM)?
Answer: The relative viability was 0.783.

Question: What about the relative viability (BEN; first compound 0.8 µM) of the same compound?
Answer: Its relative viability is 0.503.

Question: What about the relative viability (BEN; first compound 2.53 µM) of the same compound?
Answer: The relative viability was 0.701.

Question: And the relative viability (BEN; first compound 8 µM)?
Answer: The relative viability was 0.563.

Question: And the relative viability (NCI-H650; first compound 0.253 µM)?
Answer: Its relative viability is 1.06.

Question: What about the relative viability (NCI-H650; first compound 0.8 µM) of the same compound?
Answer: Its relative viability is 0.927.

Question: And the relative viability (NCI-H650; first compound 2.53 µM)?
Answer: Its relative viability is 1.06.

Question: And the relative viability (NCI-H650; first compound 8 µM)?
Answer: Its relative viability is 0.89.

Question: What about the relative viability (NCI-H322M; first compound 0.253 µM) of the same compound?
Answer: The relative viability was 0.543.

Question: And the relative viability (NCI-H322M; first compound 0.8 µM)?
Answer: The relative viability was 0.55.

Question: And the relative viability (NCI-H322M; first compound 2.53 µM)?
Answer: Its relative viability is 0.596.

Question: And the relative viability (NCI-H322M; first compound 8 µM)?
Answer: Its relative viability is 0.442.

Question: What about the relative viability (LOU-NH91; first compound 0.253 µM) of the same compound?
Answer: The relative viability was 0.781.

Question: And the relative viability (LOU-NH91; first compound 0.8 µM)?
Answer: The relative viability was 0.702.

Question: What about the relative viability (LOU-NH91; first compound 2.53 µM) of the same compound?
Answer: The relative viability was 0.766.

Question: What about the relative viability (LOU-NH91; first compound 8 µM) of the same compound?
Answer: The relative viability was 0.647.

Question: And the relative viability (HCC-15; first compound 0.253 µM)?
Answer: Its relative viability is 1.11.

Question: And the relative viability (HCC-15; first compound 0.8 µM)?
Answer: The relative viability was 1.22.

Question: And the relative viability (HCC-15; first compound 2.53 µM)?
Answer: The relative viability was 1.35.

Question: What about the relative viability (HCC-15; first compound 8 µM) of the same compound?
Answer: Its relative viability is 1.36.

Question: And the relative viability (LXF-289; first compound 0.253 µM)?
Answer: The relative viability was 1.09.

Question: And the relative viability (LXF-289; first compound 0.8 µM)?
Answer: Its relative viability is 1.1.

Question: And the relative viability (LXF-289; first compound 2.53 µM)?
Answer: Its relative viability is 1.23.

Question: And the relative viability (LXF-289; first compound 8 µM)?
Answer: The relative viability was 1.26.

Question: And the relative viability (HCC-366; first compound 0.253 µM)?
Answer: Its relative viability is 0.258.

Question: And the relative viability (HCC-366; first compound 0.8 µM)?
Answer: The relative viability was 0.268.

Question: And the relative viability (HCC-366; first compound 2.53 µM)?
Answer: The relative viability was 0.371.

Question: And the relative viability (HCC-366; first compound 8 µM)?
Answer: Its relative viability is 0.335.

Question: What about the relative viability (LC-2-ad; first compound 0.253 µM) of the same compound?
Answer: Its relative viability is 0.902.

Question: And the relative viability (LC-2-ad; first compound 0.8 µM)?
Answer: Its relative viability is 0.928.

Question: And the relative viability (LC-2-ad; first compound 2.53 µM)?
Answer: Its relative viability is 0.865.

Question: What about the relative viability (LC-2-ad; first compound 8 µM) of the same compound?
Answer: Its relative viability is 0.94.

Question: And the relative viability (NCI-H2347; first compound 0.253 µM)?
Answer: The relative viability was 0.787.

Question: What about the relative viability (NCI-H2347; first compound 0.8 µM) of the same compound?
Answer: The relative viability was 0.689.

Question: And the relative viability (NCI-H2347; first compound 2.53 µM)?
Answer: The relative viability was 0.811.

Question: And the relative viability (NCI-H2347; first compound 8 µM)?
Answer: The relative viability was 0.703.

Question: And the relative viability (NCI-H838; first compound 0.253 µM)?
Answer: The relative viability was 0.938.

Question: What about the relative viability (NCI-H838; first compound 0.8 µM) of the same compound?
Answer: Its relative viability is 0.871.

Question: And the relative viability (NCI-H838; first compound 2.53 µM)?
Answer: Its relative viability is 0.962.

Question: And the relative viability (NCI-H838; first compound 8 µM)?
Answer: The relative viability was 1.03.

Question: And the relative viability (NCI-H2085; first compound 0.253 µM)?
Answer: The relative viability was 0.991.

Question: What about the relative viability (NCI-H2085; first compound 0.8 µM) of the same compound?
Answer: Its relative viability is 1.02.

Question: And the relative viability (NCI-H2085; first compound 2.53 µM)?
Answer: The relative viability was 0.982.

Question: What about the relative viability (NCI-H2085; first compound 8 µM) of the same compound?
Answer: The relative viability was 0.919.

Question: And the relative viability (NCI-H1651; first compound 0.253 µM)?
Answer: Its relative viability is 0.506.

Question: What about the relative viability (NCI-H1651; first compound 0.8 µM) of the same compound?
Answer: The relative viability was 0.436.

Question: And the relative viability (NCI-H1651; first compound 2.53 µM)?
Answer: The relative viability was 0.568.

Question: And the relative viability (NCI-H1651; first compound 8 µM)?
Answer: The relative viability was 0.44.

Question: And the relative viability (NCI-H1395; first compound 0.253 µM)?
Answer: Its relative viability is 0.405.

Question: What about the relative viability (NCI-H1395; first compound 2.53 µM) of the same compound?
Answer: The relative viability was 0.387.

Question: And the relative viability (NCI-H1395; first compound 8 µM)?
Answer: Its relative viability is 0.376.
